# Results from ChEMBL document CHEMBL3885881, “DrugMatrix”.
# Species: Rattus norvegicus
# Assay: DrugMatrix - Regimen: Daily Repeat
# Format: toxicity, organism-based, Sprague-Dawley
# Parameters: regimen Daily Repeat, gender Male, age 6-8 weeks
# Settings: in vivo, po, route oral GAVAGE, vehicle 100 % WATER; for ABSOLUTE BASOPHIL / ABSOLUTE EOSINOPHIL / ABSOLUTE LYMPHOCYTE / ABSOLUTE MONOCYTE / ABSOLUTE SEGMENTED NEUTROPHIL / BASOPHIL / EOSINOPHIL / ERYTHROCYTE COUNT / HEMATOCRIT / HEMOGLOBIN / LEUKOCYTE COUNT / LYMPHOCYTE / MEAN CORPUSCULAR HEMOGLOBIN / MEAN CORPUSCULAR HEMOGLOBIN CONCENTRATION / MEAN CORPUSCULAR VOLUME / MONOCYTE / NEUTROPHIL / NUCLEATED RED BLOOD CELLS / PLATELET COUNT: tissue Blood; for ALANINE AMINOTRANSFERASE / ALBUMIN / ALKALINE PHOSPHATASE / ASPARTATE AMINOTRANSFERASE / BLOOD UREA NITROGEN / CARBON DIOXIDE / CHLORIDE / CHOLESTEROL / CREATINE PHOSPHOKINASE / CREATININE / GLUCOSE / LACTATE DEHYDROGENASE / LIPASE / PHOSPHORUS / POTASSIUM / SODIUM / TOTAL BILIRUBIN / TOTAL PROTEIN / URIC ACID: tissue Plasma
# [1] = 20 mg/kg, 72 h, dose level Low, time 3 day
# [2] = 20 mg/kg, 120 h, dose level Low, time 5 day
# [3] = 266 mg/kg, 72 h, dose level High, time 3 day
# [4] = 266 mg/kg, 120 h, dose level High, time 5 day
compound,measurement,setting,value
O=C(NCCN1CCOCC1)c1ccc(Cl)cc1 [MOCLOBEMIDE],ABSOLUTE BASOPHIL,[1],0 CELLS/uL
same,ABSOLUTE EOSINOPHIL,[1],175 CELLS/uL
same,ABSOLUTE LYMPHOCYTE,[1],12157.33 CELLS/uL
same,ABSOLUTE MONOCYTE,[1],176.67 CELLS/uL
same,ABSOLUTE SEGMENTED NEUTROPHIL,[1],691 CELLS/uL
same,BASOPHIL,[1],0%
same,EOSINOPHIL,[1],1%
same,ERYTHROCYTE COUNT,[1],5.68 x10E6/uL
same,HEMATOCRIT,[1],34.7%
same,HEMOGLOBIN,[1],13.23 G/DL
same,LEUKOCYTE COUNT,[1],13.2 x10E3/uL
same,LYMPHOCYTE,[1],92.33%
same,MEAN CORPUSCULAR HEMOGLOBIN,[1],23.33 pg
same,MEAN CORPUSCULAR HEMOGLOBIN CONCENTRATION,[1],38.13 G/DL
same,MEAN CORPUSCULAR VOLUME,[1],61.13 fL
same,MONOCYTE,[1],1.33%
same,NEUTROPHIL,[1],5.33%
same,NUCLEATED RED BLOOD CELLS,[1],0 /100WBC
same,PLATELET COUNT,[1],1220 x10E3/uL
same,ALANINE AMINOTRANSFERASE,[1],54.33 u/L
same,ALBUMIN,[1],4.07 G/DL
same,ALKALINE PHOSPHATASE,[1],345 u/L
same,ASPARTATE AMINOTRANSFERASE,[1],110.33 u/L
same,BLOOD UREA NITROGEN,[1],17.33 mg/dL
same,CARBON DIOXIDE,[1],23.67 mmol/L
same,CHLORIDE,[1],102.67 MEQ/L
same,CHOLESTEROL,[1],74 mg/dL
same,CREATINE PHOSPHOKINASE,[1],379 u/L
same,CREATININE,[1],0.2 mg/dL
same,GLUCOSE,[1],174.67 mg/dL
same,LACTATE DEHYDROGENASE,[1],728 u/L
same,LIPASE,[1],9.67 u/L
same,PHOSPHORUS,[1],14.07 mg/dL
same,POTASSIUM,[1],6.99 MEQ/L
same,SODIUM,[1],145.9 MEQ/L
same,TOTAL BILIRUBIN,[1],0.2 mg/dL
same,TOTAL PROTEIN,[1],5.7 G/DL
same,URIC ACID,[1],2.03 mg/dL
same,ABSOLUTE BASOPHIL,[2],0 CELLS/uL
same,ABSOLUTE EOSINOPHIL,[2],0 CELLS/uL
same,ABSOLUTE LYMPHOCYTE,[2],15547 CELLS/uL
same,ABSOLUTE MONOCYTE,[2],117.33 CELLS/uL
same,ABSOLUTE SEGMENTED NEUTROPHIL,[2],1669 CELLS/uL
same,BASOPHIL,[2],0%
same,EOSINOPHIL,[2],0%
same,ERYTHROCYTE COUNT,[2],5.91 x10E6/uL
same,HEMATOCRIT,[2],36.73%
same,HEMOGLOBIN,[2],14.33 G/DL
same,LEUKOCYTE COUNT,[2],17.33 x10E3/uL
same,LYMPHOCYTE,[2],89.67%
same,MEAN CORPUSCULAR HEMOGLOBIN,[2],24.33 pg
same,MEAN CORPUSCULAR HEMOGLOBIN CONCENTRATION,[2],39 G/DL
same,MEAN CORPUSCULAR VOLUME,[2],62.4 fL
same,MONOCYTE,[2],0.67%
same,NEUTROPHIL,[2],9.67%
same,NUCLEATED RED BLOOD CELLS,[2],0 /100WBC
same,PLATELET COUNT,[2],1391.67 x10E3/uL
same,ALANINE AMINOTRANSFERASE,[2],57 u/L
same,ALBUMIN,[2],4.1 G/DL
same,ALKALINE PHOSPHATASE,[2],322.67 u/L
same,ASPARTATE AMINOTRANSFERASE,[2],96.67 u/L
same,BLOOD UREA NITROGEN,[2],15 mg/dL
same,CARBON DIOXIDE,[2],27.33 mmol/L
same,CHLORIDE,[2],101.33 MEQ/L
same,CHOLESTEROL,[2],70.67 mg/dL
same,CREATINE PHOSPHOKINASE,[2],318 u/L
same,CREATININE,[2],0.17 mg/dL
same,GLUCOSE,[2],156.67 mg/dL
same,LACTATE DEHYDROGENASE,[2],488 u/L
same,LIPASE,[2],9.67 u/L
same,PHOSPHORUS,[2],13.7 mg/dL
same,POTASSIUM,[2],6.88 MEQ/L
same,SODIUM,[2],145.17 MEQ/L
same,TOTAL BILIRUBIN,[2],0.17 mg/dL
same,TOTAL PROTEIN,[2],5.83 G/DL
same,URIC ACID,[2],1.63 mg/dL
same,ABSOLUTE BASOPHIL,[3],0 CELLS/uL
same,ABSOLUTE EOSINOPHIL,[3],201.33 CELLS/uL
same,ABSOLUTE LYMPHOCYTE,[3],17920 CELLS/uL
same,ABSOLUTE MONOCYTE,[3],282 CELLS/uL
same,ABSOLUTE SEGMENTED NEUTROPHIL,[3],1130 CELLS/uL
same,BASOPHIL,[3],0%
same,EOSINOPHIL,[3],0.67%
same,ERYTHROCYTE COUNT,[3],5.8 x10E6/uL
same,HEMATOCRIT,[3],36.67%
same,HEMOGLOBIN,[3],14.43 G/DL
same,LEUKOCYTE COUNT,[3],19.53 x10E3/uL
same,LYMPHOCYTE,[3],92%
same,MEAN CORPUSCULAR HEMOGLOBIN,[3],24.93 pg
same,MEAN CORPUSCULAR HEMOGLOBIN CONCENTRATION,[3],39.37 G/DL
same,MEAN CORPUSCULAR VOLUME,[3],63.27 fL
same,MONOCYTE,[3],1.33%
same,NEUTROPHIL,[3],6%
same,NUCLEATED RED BLOOD CELLS,[3],0 /100WBC
same,PLATELET COUNT,[3],1228 x10E3/uL
same,ALANINE AMINOTRANSFERASE,[3],45 u/L
same,ALBUMIN,[3],4.27 G/DL
same,ALKALINE PHOSPHATASE,[3],348 u/L
same,ASPARTATE AMINOTRANSFERASE,[3],85.67 u/L
same,BLOOD UREA NITROGEN,[3],15.67 mg/dL
same,CARBON DIOXIDE,[3],27 mmol/L
same,CHLORIDE,[3],102 MEQ/L
same,CHOLESTEROL,[3],91.67 mg/dL
same,CREATINE PHOSPHOKINASE,[3],407 u/L
same,CREATININE,[3],0.2 mg/dL
same,GLUCOSE,[3],135.33 mg/dL
same,LACTATE DEHYDROGENASE,[3],202.33 u/L
same,LIPASE,[3],9.67 u/L
same,PHOSPHORUS,[3],12.33 mg/dL
same,POTASSIUM,[3],5.98 MEQ/L
same,SODIUM,[3],144.7 MEQ/L
same,TOTAL BILIRUBIN,[3],0.13 mg/dL
same,TOTAL PROTEIN,[3],5.67 G/DL
same,URIC ACID,[3],1.47 mg/dL
same,ABSOLUTE BASOPHIL,[4],0 CELLS/uL
same,ABSOLUTE EOSINOPHIL,[4],57.67 CELLS/uL
same,ABSOLUTE LYMPHOCYTE,[4],16939.67 CELLS/uL
same,ABSOLUTE MONOCYTE,[4],123 CELLS/uL
same,ABSOLUTE SEGMENTED NEUTROPHIL,[4],946.33 CELLS/uL
same,BASOPHIL,[4],0%
same,EOSINOPHIL,[4],0.33%
same,ERYTHROCYTE COUNT,[4],6.33 x10E6/uL
same,HEMATOCRIT,[4],38.47%
same,HEMOGLOBIN,[4],15.33 G/DL
same,LEUKOCYTE COUNT,[4],18.07 x10E3/uL
same,LYMPHOCYTE,[4],93.67%
same,MEAN CORPUSCULAR HEMOGLOBIN,[4],24.23 pg
same,MEAN CORPUSCULAR HEMOGLOBIN CONCENTRATION,[4],39.87 G/DL
same,MEAN CORPUSCULAR VOLUME,[4],60.77 fL
same,MONOCYTE,[4],0.67%
same,NEUTROPHIL,[4],5.33%
same,NUCLEATED RED BLOOD CELLS,[4],0 /100WBC
same,PLATELET COUNT,[4],1501 x10E3/uL
same,ALANINE AMINOTRANSFERASE,[4],44 u/L
same,ALBUMIN,[4],4.3 G/DL
same,ALKALINE PHOSPHATASE,[4],312.33 u/L
same,ASPARTATE AMINOTRANSFERASE,[4],75.67 u/L
same,BLOOD UREA NITROGEN,[4],16 mg/dL
same,CARBON DIOXIDE,[4],26 mmol/L
same,CHLORIDE,[4],100.67 MEQ/L
same,CHOLESTEROL,[4],75.67 mg/dL
same,CREATINE PHOSPHOKINASE,[4],226.33 u/L
same,CREATININE,[4],0.15 mg/dL
same,GLUCOSE,[4],155.33 mg/dL
same,LACTATE DEHYDROGENASE,[4],246.67 u/L
same,LIPASE,[4],10.33 u/L
same,PHOSPHORUS,[4],12.43 mg/dL
same,POTASSIUM,[4],6.84 MEQ/L
same,SODIUM,[4],143.43 MEQ/L
same,TOTAL BILIRUBIN,[4],0.17 mg/dL
same,TOTAL PROTEIN,[4],6.2 G/DL
same,URIC ACID,[4],2.3 mg/dL
